Measurements: ChEMBL document CHEMBL1139788, “Potent, nonsteroidal selective androgen receptor modulators (SARMs) based on 8H-[1,4]oxazino[2,3-f]quinolin-8-ones” (Bioorg Med Chem Lett, 2007)
Activity calls are given as the source filed them. The calls are words filed in the database; no cut-off is given here.

Tests used:
[1] = target: T1, Glucocorticoid receptor (Homo sapiens) (UniProt P04150); experiment: Agonist activity at glucocorticoid receptor by transactivation assay; assay type: functional
T1 sequence (whole entry): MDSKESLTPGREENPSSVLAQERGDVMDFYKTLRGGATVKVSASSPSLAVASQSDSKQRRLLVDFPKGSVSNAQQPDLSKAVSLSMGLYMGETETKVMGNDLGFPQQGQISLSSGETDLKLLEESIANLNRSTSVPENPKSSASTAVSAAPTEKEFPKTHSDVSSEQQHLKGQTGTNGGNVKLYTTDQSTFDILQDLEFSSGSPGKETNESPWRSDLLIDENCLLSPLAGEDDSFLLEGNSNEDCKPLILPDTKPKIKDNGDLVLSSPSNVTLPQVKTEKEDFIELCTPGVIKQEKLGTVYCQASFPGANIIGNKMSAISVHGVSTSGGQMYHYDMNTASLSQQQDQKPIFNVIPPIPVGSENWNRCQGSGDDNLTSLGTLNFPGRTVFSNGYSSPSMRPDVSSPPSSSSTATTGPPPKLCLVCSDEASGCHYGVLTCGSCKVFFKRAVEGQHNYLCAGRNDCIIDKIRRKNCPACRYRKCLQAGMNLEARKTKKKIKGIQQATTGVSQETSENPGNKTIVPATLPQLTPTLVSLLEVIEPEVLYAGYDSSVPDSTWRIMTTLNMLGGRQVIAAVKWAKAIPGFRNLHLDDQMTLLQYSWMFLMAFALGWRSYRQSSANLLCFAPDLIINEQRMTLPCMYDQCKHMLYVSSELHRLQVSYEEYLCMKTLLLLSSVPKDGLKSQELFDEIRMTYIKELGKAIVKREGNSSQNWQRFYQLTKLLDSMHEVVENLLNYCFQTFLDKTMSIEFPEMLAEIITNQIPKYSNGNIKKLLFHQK

[2] = target: T2, Mineralocorticoid receptor (Homo sapiens) (UniProt P08235); experiment: Antagonist activity at mineralocorticoid receptor by transactivation assay; assay type: functional
T2 sequence (whole entry): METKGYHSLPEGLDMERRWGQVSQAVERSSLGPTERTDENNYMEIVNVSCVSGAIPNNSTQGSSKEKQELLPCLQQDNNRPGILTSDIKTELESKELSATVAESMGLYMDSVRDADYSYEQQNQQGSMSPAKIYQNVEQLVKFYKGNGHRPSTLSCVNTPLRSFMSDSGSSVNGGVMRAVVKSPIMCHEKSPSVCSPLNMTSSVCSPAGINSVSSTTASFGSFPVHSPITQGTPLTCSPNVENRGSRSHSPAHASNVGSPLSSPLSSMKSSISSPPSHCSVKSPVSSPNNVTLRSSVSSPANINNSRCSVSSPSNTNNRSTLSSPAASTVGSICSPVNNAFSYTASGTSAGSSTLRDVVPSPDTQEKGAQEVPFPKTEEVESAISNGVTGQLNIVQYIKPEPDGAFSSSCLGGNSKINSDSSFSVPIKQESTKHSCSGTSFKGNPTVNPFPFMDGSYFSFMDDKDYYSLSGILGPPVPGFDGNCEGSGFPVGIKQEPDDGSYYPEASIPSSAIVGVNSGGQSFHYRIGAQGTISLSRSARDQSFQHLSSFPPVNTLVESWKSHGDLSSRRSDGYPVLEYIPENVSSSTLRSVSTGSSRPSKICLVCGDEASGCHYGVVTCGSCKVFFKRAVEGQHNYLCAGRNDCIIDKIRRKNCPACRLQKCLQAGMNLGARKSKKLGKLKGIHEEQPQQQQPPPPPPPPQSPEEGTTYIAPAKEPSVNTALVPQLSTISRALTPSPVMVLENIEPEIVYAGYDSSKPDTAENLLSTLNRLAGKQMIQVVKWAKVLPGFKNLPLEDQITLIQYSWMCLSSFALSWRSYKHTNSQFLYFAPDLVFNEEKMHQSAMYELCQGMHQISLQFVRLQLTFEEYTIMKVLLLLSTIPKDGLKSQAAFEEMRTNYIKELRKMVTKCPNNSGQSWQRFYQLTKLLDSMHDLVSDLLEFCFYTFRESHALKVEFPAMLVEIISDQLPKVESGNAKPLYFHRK

[3] = target: T2, Mineralocorticoid receptor (Homo sapiens); experiment: Agonist activity at mineralocorticoid receptor by transactivation assay; assay type: functional
Rattus norvegicus [4] = experiment: Reduced activity on ventral prostate weight in 2-week castrated mature rat model at 100 mg/kg; assay type: functional, organism-based; set-up: dose 100 mg/kg; conditions: Prostate gland
[5] = target: T3, Progesterone receptor (Homo sapiens) (UniProt P06401); experiment: Agonist activity at progesterone receptor by transactivation assay; assay type: functional
T3 sequence (whole entry): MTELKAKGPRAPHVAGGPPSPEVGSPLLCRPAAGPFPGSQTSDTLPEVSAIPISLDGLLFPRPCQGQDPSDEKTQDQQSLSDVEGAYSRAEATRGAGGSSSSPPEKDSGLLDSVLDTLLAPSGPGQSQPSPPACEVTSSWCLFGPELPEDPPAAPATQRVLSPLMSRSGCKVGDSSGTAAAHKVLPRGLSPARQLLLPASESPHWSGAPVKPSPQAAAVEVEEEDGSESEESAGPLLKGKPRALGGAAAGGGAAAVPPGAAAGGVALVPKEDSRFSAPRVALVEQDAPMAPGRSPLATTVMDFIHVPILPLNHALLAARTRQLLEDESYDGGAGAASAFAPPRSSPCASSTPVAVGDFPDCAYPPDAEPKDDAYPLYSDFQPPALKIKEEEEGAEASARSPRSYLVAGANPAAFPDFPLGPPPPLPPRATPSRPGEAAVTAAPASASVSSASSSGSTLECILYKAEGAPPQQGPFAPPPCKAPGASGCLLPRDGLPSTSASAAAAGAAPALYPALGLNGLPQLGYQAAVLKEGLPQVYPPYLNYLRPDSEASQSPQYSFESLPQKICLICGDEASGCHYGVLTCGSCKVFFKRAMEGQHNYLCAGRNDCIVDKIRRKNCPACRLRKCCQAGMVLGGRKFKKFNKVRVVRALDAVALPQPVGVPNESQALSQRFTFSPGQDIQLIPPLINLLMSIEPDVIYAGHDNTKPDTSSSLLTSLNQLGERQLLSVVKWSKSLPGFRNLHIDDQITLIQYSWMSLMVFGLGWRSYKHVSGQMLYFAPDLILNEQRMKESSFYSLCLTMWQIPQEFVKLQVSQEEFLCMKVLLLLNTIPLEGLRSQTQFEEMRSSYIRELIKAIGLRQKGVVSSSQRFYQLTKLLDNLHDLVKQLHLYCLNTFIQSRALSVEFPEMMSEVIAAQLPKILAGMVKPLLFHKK

Rattus norvegicus [6] = experiment: Effect on levator ani muscle weight maintenance in 2-week castrated mature rat model at 10 mg/kg; assay type: functional, organism-based; set-up: dose 10 mg/kg
Androgen receptor [7] = target: T4, Androgen receptor (Homo sapiens, UniProt P10275)
T4 sequence (P10275 whole entry): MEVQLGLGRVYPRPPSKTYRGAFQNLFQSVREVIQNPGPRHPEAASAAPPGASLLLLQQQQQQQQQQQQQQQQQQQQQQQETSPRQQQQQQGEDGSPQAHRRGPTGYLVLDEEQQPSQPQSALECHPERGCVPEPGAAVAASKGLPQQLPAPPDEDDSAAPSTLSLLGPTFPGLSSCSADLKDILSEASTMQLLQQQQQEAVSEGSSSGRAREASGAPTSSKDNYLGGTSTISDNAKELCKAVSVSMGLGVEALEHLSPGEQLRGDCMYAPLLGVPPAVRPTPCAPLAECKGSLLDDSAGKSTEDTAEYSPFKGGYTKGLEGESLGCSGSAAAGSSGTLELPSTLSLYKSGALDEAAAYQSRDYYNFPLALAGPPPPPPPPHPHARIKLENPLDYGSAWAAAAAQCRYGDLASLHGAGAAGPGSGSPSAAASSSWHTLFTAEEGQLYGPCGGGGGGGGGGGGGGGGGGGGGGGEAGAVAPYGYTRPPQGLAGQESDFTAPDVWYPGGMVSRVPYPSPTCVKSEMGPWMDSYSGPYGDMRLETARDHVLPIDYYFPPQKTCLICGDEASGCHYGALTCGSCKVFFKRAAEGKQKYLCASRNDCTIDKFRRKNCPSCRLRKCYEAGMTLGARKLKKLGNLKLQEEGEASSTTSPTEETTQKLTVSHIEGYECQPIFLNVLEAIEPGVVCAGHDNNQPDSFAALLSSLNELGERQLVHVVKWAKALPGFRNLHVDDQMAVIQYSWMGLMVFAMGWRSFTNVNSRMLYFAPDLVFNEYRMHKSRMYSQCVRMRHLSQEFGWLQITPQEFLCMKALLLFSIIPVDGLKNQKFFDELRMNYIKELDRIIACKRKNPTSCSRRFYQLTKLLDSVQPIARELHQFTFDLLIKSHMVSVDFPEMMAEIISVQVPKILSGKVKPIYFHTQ
Description: Antagonist activity at human androgen receptor expressed in CV1 cells by transcriptional activation assay

Androgen receptor [8] = target: T4, Androgen receptor; remark: listed apart in the source
Description: Agonist activity at human androgen receptor expressed in CV1 cells by transcriptional activation assay

[9] = target: T3, Progesterone receptor (Homo sapiens); experiment: Antagonist activity at progesterone receptor by transactivation assay; assay type: functional
[10] = target: T1, Glucocorticoid receptor (Homo sapiens); experiment: (§1) Antagonist activity at glucocorticoid receptor by transactivation assay; assay type: functional
Glucocorticoid receptor = target: T5, Glucocorticoid receptor (Homo sapiens, UniProt P04150); experiment: as §1; assay type: functional
T5 sequence (P04150 whole entry): T1 sequence (whole entry)

Structure (SMILES)	IC50 (Androgen receptor [7]) [nM]	EC50 (Androgen receptor [8]) [nM]	also measured
CC[C@@H]1COc2c(ccc3[nH]c(=O)cc(C(F)(F)F)c23)N1CC(F)(F)F	> 10000	1	Activity [1]: inactive; Activity [2]: inactive; Activity [3]: inactive; Activity (Rattus norvegicus [4]): Active; Activity [5]: inactive; Activity (Rattus norvegicus [6]): Active; Efficacy [9]: 94%; Efficacy [10]: 98%
CC[C@@H]1COc2c(ccc3[nH]c(=O)cc(C(F)(F)F)c23)N1	84	> 10000	Activity [1]: inactive; Activity [2]: inactive; Activity [3]: inactive; Activity [5]: inactive; Efficacy [9]: 42%
O=c1cc(C(F)(F)F)c2c3c(ccc2[nH]1)N(CC1CC1)[C@@H](c1ccccc1)CO3	> 10000	18	–
CCC[C@@H]1COc2c(ccc3[nH]c(=O)cc(C(F)(F)F)c23)N1	113	> 10000	–
O=c1cc(C(F)(F)F)c2c3c(ccc2[nH]1)NCCO3	1500	> 10000	–
CCCN1c2ccc3[nH]c(=O)cc(C(F)(F)F)c3c2OC[C@H]1CC	> 10000	394	–
CC[C@@H]1COc2c(ccc3[nH]c(=O)cc(C(F)(F)F)c23)N1C	–	> 10000	–
CC(C)[C@@H]1COc2c(ccc3[nH]c(=O)cc(C(F)(F)F)c23)N1CC(F)(F)F	> 10000	20	–
CC[C@@H]1COc2c(ccc3[nH]c(=O)cc(C(F)(F)F)c23)N1CC(C)(C)O	> 10000	300	–
C=CCN1c2ccc3[nH]c(=O)cc(C(F)(F)F)c3c2OC[C@H]1CC	> 10000	51	–
CCN1c2ccc3[nH]c(=O)cc(C(F)(F)F)c3c2OC[C@H]1C(C)C	> 10000	–	–
CC[C@@H]1COc2c(ccc3[nH]c(=O)cc(C(F)(F)F)c23)N1CC(C)C	> 10000	227	–
O=c1cc(C(F)(F)F)c2c3c(ccc2[nH]1)N(CC1CC1)[C@H](c1ccccc1)CO3	45	> 10000	–
C[C@@H]1COc2c(ccc3[nH]c(=O)cc(C(F)(F)F)c23)N1C	–	> 10000	–
CC[C@@H]1COc2c(ccc3[nH]c(=O)cc(C(F)(F)F)c23)N1CC	> 10000	–	–
O=c1cc(C(F)(F)F)c2c3c(ccc2[nH]1)N(CC(F)(F)F)[C@H](Cc1ccccc1)CO3	> 10000	43	–
CCCN1c2ccc3[nH]c(=O)cc(C(F)(F)F)c3c2OC[C@H]1C	–	406	–
C=CCN1c2ccc3[nH]c(=O)cc(C(F)(F)F)c3c2OC[C@H]1C(C)C	> 10000	–	–
CC(C)C[C@@H]1COc2c(ccc3[nH]c(=O)cc(C(F)(F)F)c23)N1CC(F)(F)F	–	98	–
O=c1cc(C(F)(F)F)c2c3c(ccc2[nH]1)N(CC(F)(F)F)CCO3	–	190	–
O=c1cc(C(F)(F)F)c2c3c(ccc2[nH]1)N[C@H](c1ccccc1)CO3	1480	> 10000	–
C[C@@H]1COc2c(ccc3[nH]c(=O)cc(C(F)(F)F)c23)N1CC(F)(F)F	> 10000	5.4	Activity [1]: inactive; Activity [2]: inactive; Activity [3]: inactive; Activity [5]: inactive; Efficacy [9]: 40%; Efficacy [10]: 53%; IC50 (Glucocorticoid receptor): 3200 nM
CCN1c2ccc3[nH]c(=O)cc(C(F)(F)F)c3c2OC[C@H]1C	–	420	–
O=c1cc(C(F)(F)F)c2c3c(ccc2[nH]1)N(CC1CC1)C(c1ccccc1)CO3 (stereo not given)	> 10000	3.5	–
CC(C)[C@@H]1COc2c(ccc3[nH]c(=O)cc(C(F)(F)F)c23)N1C	–	276	–
